In a melting point compilation (Tetko et al.; mined from patent text by program, amines drawn as free bases though some values may be those of a salt) one finds melting point data, which are given here for 90 compounds.

The structures appear in SMILES notation.

A word on the melting point: it is the temperature of the solid-liquid transition.

`O=P(O)(O)C(NCc1ccccc1)c1ccccc1` (stereo not given) yielded a melting point of 233 to 236 °C. As for `O=C(O)c1ccc(-c2ccc(I)c(O)c2)cc1`, the figure is 174 °C; as for `C=Cc1ccc2nnn(OS(=O)(=O)c3ccc(C)cc3)c2c1`, 90 to 91 °C. With `O=Cc1cncc(Br)c1`, the melting point was 95 °C. The value for `CN(C)C=C(C#N)C(=O)c1ccsc1` was 118 to 119 °C; that for `O=C(Nc1csc(Br)n1)C(Cl)(Cl)Cl` was 77 to 80 °C; that for `O=S(=O)(Nc1ccc2c(OCc3coc(-c4ccc(Br)cc4)n3)cccc2c1)C(F)(F)F` was 205 to 207 °C. As for `CC(=O)N(C)c1cc(-c2ccnc3c(C(=O)c4cccs4)cnn23)ccc1Cl`, the figure is 191 to 193 °C. The value for `CCCC1CCC(C2CCc3c4c(c(F)c(F)c3O2)OCCC4)CC1` (stereo not given) was 152 °C. As for `Cc1nc2cc(C(F)(F)F)c(Cl)c([N+](=O)[O-])c2n1N(C)C`, the melting point was 160 to 162 °C.

For the compound `Cc1cc2c(cc1Br)C(C)(C)C=CC2(C)C`, the melting point lay within 103 to 105 °C.

In the case of `COc1cccc(C(CN2CCN(c3cccc(C(F)(F)F)c3)CC2)C2(O)CCCC2)c1` (stereo not given), the melting point lay in the range of 158 to 160 °C. Take `CCCCCCCCCC(C)CNc1cccc(-c2ccnc3c(C(=O)c4cccs4)cnn23)c1` (stereo not given): the melting point was in the range of 108 to 110 °C.

Compound `Cn1c(=O)c(-c2ccc(Cl)cc2Cl)cc2c3cc(-c4ccno4)ccc3[nH]c21` gave a melting point of 320 to 323 °C. The value for `CCOC(=O)n1c(SC(F)(F)F)cc(-c2ccc(F)cc2)c1-c1ccc(F)cc1` was 54 to 54.5 °C; that for `Nc1nc(-c2cc(Cl)ccc2Cl)nc(N2CCC(Cc3ccccc3)CC2)n1` was 159 to 161 °C. The value for `CC(C)(CCCCC(=O)CCCCC1(C(=O)O)CC1)C(=O)O` was 49 to 52 °C; that for `Nc1ccncc1C(=NO)c1ccccc1F` was 212 to 214 °C. As for `COc1cccc(-c2cc3c(n2-c2ccc(O)c(C(=O)O)c2)CCCC3)c1`, the figure is 175 to 177 °C; as for `CCc1c(-c2ccc(OC)cc2)c2c3c(c4cc(OC)cc1n42)C(=O)OC3=O`, 249 to 251 °C; as for `O=S(=O)(CC1CCN(CCC2CCOc3ccccc32)CC1)Nc1ccccc1` (stereo not given), 186 °C.

On to `CC(C)=CC(C#N)NC(=O)c1cn(C)nc1C` (stereo not given), for which the melting point was 110 to 112 °C.

In turn, `O=C1NCc2c1cc1ccc3c(c1c2-c1cccnc1)OCO3` yielded a melting point of 257 to 260 °C.

Turning to `CCc1cccc(CC)c1NC(=O)c1c2n(c(C)cc1=O)CCCC2`, the melting point fell in the range of 134 to 137 °C. The value for `C=CCC(C(=O)NC)c1ccccc1` (stereo not given) was 97 to 99 °C. As for `N#Cc1c[nH]c2cccc(OCC3CO3)c12` (stereo not given), the figure is 116 to 120 °C.

`CSc1nn(C)c(=O)n1Cc1cc(-c2ccccc2)ccc1C`: the melting point stood at 95.6 °C. The value for `CCC(COC)c1ccc(Cl)c2nc3n(c12)CCCN3c1ccc(Cl)cc1Cl` (stereo not given) was 130 to 131 °C. The value for `CC12CCC3C(CC=C4CC(O)CCC43C)C1CC=C2I` (stereo not given) was 169 to 171 °C; that for `CC(=O)N1CN(C(=O)c2c(F)cccc2F)C(=O)N(c2ccc(Cl)cc2)C1` was 171 to 172 °C; that for `NC(=S)NCc1cn(-c2ccc(N3CCOCC3)c(F)c2)nn1` was 192 °C. The compound `Fc1cc2c(cc1F)CC(n1cc[nH]c1=S)C2` returned a melting point of 255 to 257 °C. As for `CCn1cc(C(=O)O)c(=O)c2cc(F)c(N3CCN(C)C(c4sc5ccccc5c4C)C3)cc21` (stereo not given), the figure is 253 to 254 °C. The value for `CN(C)c1cc(-c2ccnc(Nc3cccc(Cl)c3)n2)ccn1` was 176 to 178 °C; that for `CCOC(=O)Cc1ccc2c(c1)sc1cc(N(C)C)ccc12` was 115 to 120 °C.

Consider `COC(=O)c1ccc2ccc3ccccc3c(=O)c2c1`, for which the melting point was in the range of 118 to 120 °C.

For the compound `CCCCCCCCCCCCn1nnc(N(C(=O)Nc2ccc(F)cc2F)c2ccccc2)n1`, the melting point is 55 to 57 °C. As for `CCC(C)(C)NC(=O)C(=O)c1ccccc1`, the figure is 29 to 30 °C; as for `CN1CC(=O)NC1=NC(=O)Nc1cccc([N+](=O)[O-])c1`, 182 to 188 °C; as for `COc1cccc(CC(N)C(=O)O)c1OCCc1ccccc1` (racemic), 180 to 182 °C.

Consider `Cc1oc(-c2ccccc2)nc1COc1ccc(CCc2oc(-c3ccccc3)nc2CO)cc1`, for which the melting point is 142 to 143 °C. As for `CCOC(=O)c1ccc(COCc2csc3nc(C(=O)NCc4ccccc4)[nH]c(=O)c23)cc1`, the figure is 229 °C; as for `Cn1nc(C(=O)NCc2ccc(Cl)cc2)c(=O)c2cc(CO)ccc21`, 203 to 205 °C. Take `O=[N+]([O-])c1c(Cl)c(Cl)cc2c1OC(F)(F)O2`: the melting point was 29 to 30 °C. As for `O=C(CCNNC(=O)c1ccccc1)OCc1ccccc1`, the figure is 65 °C; as for `COCCNC(=O)c1cccc(-c2cccc3oc(Cc4ccc(F)c(F)c4)cc23)c1`, 83 to 84 °C. As for `CN(C)CCNC(=O)[C@H]1C[C@H](NC(=O)Nc2ccccc2)c2c(Cl)cc(Cl)cc2N1` (relative stereo), the figure is 223 to 224 °C; as for `CC1C(NC(=O)OCc2ccccc2)C(=O)N1OCC(=O)OC(C)(C)C` (stereo not given), 30 °C; as for `CC(=O)c1ccc(OCCOc2ccc3ccccc3c2)c([N+](=O)[O-])c1`, 158 to 160 °C. The value for `COC(=O)C(=C(C)C)N1CC(NC(=O)OCc2ccccc2)C1=O` (stereo not given) was 135 to 137 °C; that for `CCCCCCCCCCCCCCCCCC(=O)OC(CO)CO` was 73 to 75 °C; that for `COc1ccc(CNc2cnn[nH]2)cc1OC1CCCC1` was 113 to 114 °C. The compound `COC(=O)c1ccc(COc2cc(C(C)(C)C)nn2Cc2ccc(C(=O)OC)cc2)cc1` came in with a melting point of 93 to 94 °C.

The compound `NNc1ccnc2c(NC(=O)c3c(Cl)cccc3Cl)cc(Cl)cc12` had a melting point of 142 to 150 °C. `COc1cc(OC)nc(Sc2sccc2NS(=O)(=O)C(F)(F)F)n1` yielded a melting point of 103 to 104 °C. As for `CCc1cnc(C2=NC(C)(C(C)C)C(=O)N2)c(C(=O)OC(C)CC)c1` (stereo not given), the figure is 83 to 87 °C; as for `NC(=O)c1nnn(Cc2ccccc2C(F)(F)F)c1N`, 197 to 198 °C; as for `CCN1C(=O)C(C)(C)C(=O)N(C)c2cc(OCCCn3cc(I)c(=O)c4ccccc43)ccc21`, 97 to 106 °C.

`Cc1c2c(nc3ccccc13)CCN(S(=O)(=O)c1ccc(Cl)cc1)CC2` gave a melting point of 189 °C.

With `Cn1c(C(=O)O)cc(=O)c2cc(O)c(=O)c(Br)cc21`, the melting point is more than 250 °C. As for `Nc1cc(-c2ccccc2)c(=O)n2c1-c1sccc1CC2`, the figure is 180 to 182 °C. As for `COC(=O)CC(O)CC(O)CCc1c(-c2ccc(F)cc2)c(-c2ccccc2)c(C(=O)Nc2ccc(C(=O)OC)cn2)n1C(C)C` (stereo not given), the figure is 71 to 75 °C; as for `CC(C)(NC(=O)c1cc2c(n(CC3CCCCC3)c1=O)CCCCCC2)C(=O)O[C@H]1CO[C@H](c2ccccc2)OC1`, 166 to 168 °C; as for `COC(=O)C=CC(=O)N[C@@H](CO)c1ccccc1`, 75 to 77 °C.

In turn, `N#Cc1cccc(-n2ccc3cc(Cl)ccc32)c1` registered a melting point of 120 to 122 °C.

On to `CCc1cccc(C)c1CNc1cc(Br)cc2c1nc(CO)n2C`, for which the melting point is 206 to 208 °C. As for `O=C(NCC1CCCC1)c1ccc2c(Br)n[nH]c2c1`, the figure is 119 to 125 °C. `Oc1ccc2cc(Br)cc(F)c2c1`: the melting point is 124 to 126 °C. With `CC(C)[C@H](NC(=O)CCC(=O)c1ccccc1)C(=O)O`, the melting point was 118 to 120 °C. As for `CCC(NC(=O)Cc1ccccc1)C(=NNC(N)=S)c1ccccc1` (stereo not given), the figure is 121 to 124 °C; as for `Cc1ccc(-c2cn3cc([N+](=O)[O-])ccc3n2)cc1`, 205 to 206 °C. As for `Cc1ccc(C)c(OCCCC(C)(C)C(=O)Nc2cccc(N)c2)c1`, the figure is 93 to 94 °C; as for `Cc1cc([N+](=O)[O-])cnc1CCCC#N`, 51.5 to 53 °C; as for `CCOCc1nc2c(N)nc(C)c(C)c2n1CCC1CCN(C(=O)C(C)C)CC1`, 168 to 169 °C. For the compound `N#Cc1c(NC(=O)c2ccccc2)ccc2ccccc12`, the melting point turned out to be 205 °C.

Compound `O=C(NC(=O)c1ccccc1Cl)Nc1cc(Cl)c2c(c1)C(F)(F)C(F)(F)S2` returned a melting point of 140 to 142 °C. The value for `N#Cc1ccc2sc3c(c2c1)CC(C=O)CC3` (stereo not given) was 172 to 173 °C. As for `CCCSc1ccc(-c2coc3ccc(-c4nnc(C)o4)cc23)cc1`, the figure is 101 to 102 °C; as for `COC(=O)c1cc(I)c(O)c(C(C)(C)C)c1`, 67 °C. `CCC(CC)(CC(=O)Nc1cccc(/C=C/c2cccc(CCCCCCc3ccc(OCCC(C)C)cc3)n2)c1)C(=O)O`: the melting point lay within 136 to 137 °C. With `Cc1c(F)c(N2CCN(C)CC2)c(C)c2c1c(=O)c(C(=O)O)cn2C1CC1`, the melting point lay in the range of 205 to 206 °C. As for `CN(C)C(=O)c1ccccc1Sc1ccc(Cl)cc1C=O`, the figure is 87 to 88 °C.

`CC(=O)OCCC1CCn2c(c(C3=C(c4cn(C)c5ccccc45)C(=O)OC3=O)c3ccccc32)C1` (stereo not given) returned a melting point of 159 to 161 °C. The value for `C[C@@H]1Cc2ccsc2[C@H](C)N1CCCNC(=O)c1ccc(NS(C)(=O)=O)cc1` (relative stereo) was 148 to 150 °C; that for `CCOC(=O)C(=CNn1cnnc1)C(=O)c1cc(F)c(Cl)nc1Cl` was 89 to 95 °C.

For `CCOC(=O)c1ccc(N2CCC(N)CC2)nc1`, the melting point was 148 to 150 °C. The value for `COc1ccc([N+](=O)[O-])c(C#N)c1CBr` was 137 to 138 °C. As for `COc1ccc2ccc(N3Cc4ccccc4C3OCC(=O)O)nc2n1` (stereo not given), the figure is 190 °C; as for `COc1cc2cc3c(=O)c(C#N)c[nH]c3cc2cc1OCc1ccccc1`, more than 300 °C. Take `CN1CCC(=C2c3ccccc3Sc3ccc(C(=O)O)cc32)CC1`: the melting point lay within 319 to 323 °C.
